According to US6670365B1, “Substituted imidazo 1,2a}azines as selective inhibitors of cox-2” (Laboratorios S.A.L.V.A.T., S.A., priority 1998, dated 2003):

What was measured:
[1] = target: T1, COX-1 (Homo sapiens, UniProt P23219); experiment: Assay for in vitro COX-1 inhibition in fresh whole blood without anticoagulants (TXB2 by EIA); assay type: cell-based; conditions: no anticoagulants, compound 0.1 to 100 μM, 37° C. for 1 hour, TXB2 levels in plasma by EIA
T1 construct: Fresh blood was collected into sterile containers with no anticoagulants; endogenous in cells; host or cells: fresh whole blood without anticoagulants (platelet COX-1, TXB2 read-out)
T1 sequence (P23219 24-599): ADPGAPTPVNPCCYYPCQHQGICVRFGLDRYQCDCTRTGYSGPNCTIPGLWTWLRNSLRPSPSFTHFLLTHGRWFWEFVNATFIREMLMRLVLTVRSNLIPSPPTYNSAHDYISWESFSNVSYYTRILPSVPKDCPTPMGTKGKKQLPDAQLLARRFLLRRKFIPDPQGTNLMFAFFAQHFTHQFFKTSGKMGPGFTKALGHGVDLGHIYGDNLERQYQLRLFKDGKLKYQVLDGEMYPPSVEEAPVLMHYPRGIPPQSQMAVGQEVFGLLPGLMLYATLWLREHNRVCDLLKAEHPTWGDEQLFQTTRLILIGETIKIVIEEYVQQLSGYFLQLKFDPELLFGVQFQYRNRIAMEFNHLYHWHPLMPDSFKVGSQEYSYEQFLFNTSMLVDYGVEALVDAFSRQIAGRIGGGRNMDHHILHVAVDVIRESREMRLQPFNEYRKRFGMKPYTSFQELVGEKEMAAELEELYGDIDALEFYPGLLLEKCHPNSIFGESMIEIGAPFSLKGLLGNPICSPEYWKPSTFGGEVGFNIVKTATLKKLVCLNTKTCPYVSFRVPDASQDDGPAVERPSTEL
Experimental: Assay for in vitro COX-1 Inhibition
Fresh blood was collected into sterile containers with no anticoagulants. Aliquots of 500 μL were immediately transferred to eppendorf tubes, preloaded with a test compound each, at final concentrations varying from 0.1 to 100 μM. The eppendorf tubes were vortexed and incubated at 37° C. for 1 hour. At the end of incubation, plasma was obtained by centrifugation and stored at −80° C. TXB2 levels in plasma were established using EIA (Cayman Chemical).

[2] = target: T2, COX-2 (Homo sapiens, UniProt P35354); experiment: Assay for in vitro COX-2 inhibition in LPS-stimulated human whole blood (PGE2 by EIA); assay type: cell-based; conditions: for IC50: human whole blood, compound 0.1 to 25 μM, 15 minutes at 37° C., LPS 100 μg/mL for 24 h, PGE2 levels in plasma by EIA; for selective COX-2 inhibitory activity (COX-2 in preference to COX-1): in vitro, statement in words referring to Table 1
T2 construct: endogenous in cells; host or cells: human whole blood from volunteers, stimulated with LPS
T2 sequence (P35354 18-604): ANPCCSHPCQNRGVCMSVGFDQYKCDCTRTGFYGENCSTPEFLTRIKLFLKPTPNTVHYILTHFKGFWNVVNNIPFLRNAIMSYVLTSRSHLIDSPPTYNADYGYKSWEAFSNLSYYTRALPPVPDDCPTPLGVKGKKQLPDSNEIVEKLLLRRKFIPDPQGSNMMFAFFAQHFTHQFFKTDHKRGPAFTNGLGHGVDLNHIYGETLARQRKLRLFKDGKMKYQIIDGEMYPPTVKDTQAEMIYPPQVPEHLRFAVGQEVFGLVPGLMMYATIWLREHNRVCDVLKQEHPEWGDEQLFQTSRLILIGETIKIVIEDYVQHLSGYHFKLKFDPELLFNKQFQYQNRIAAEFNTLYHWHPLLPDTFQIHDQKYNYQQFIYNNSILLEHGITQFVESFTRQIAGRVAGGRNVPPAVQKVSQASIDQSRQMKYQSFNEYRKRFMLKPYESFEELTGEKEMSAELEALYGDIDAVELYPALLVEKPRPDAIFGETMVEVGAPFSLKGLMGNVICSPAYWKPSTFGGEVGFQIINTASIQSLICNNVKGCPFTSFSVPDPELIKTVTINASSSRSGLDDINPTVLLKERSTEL
Experimental: Assay for in vitro COX-2 Inhibition
Human whole blood from volunteers with no apparent inflammatory conditions and not having taken any NSAIDs for at least 15 days prior to blood collection was used to evaluate the COX-2 inhibitory effect of the synthesized compounds. […] At the end of the incubation, the blood was centrifuged at 10.000 rpm to obtain plasma, and the samples were stored at −80° C. PGE2 levels in plasma were established using EIA (Cayman Chemical).

Molecule | IC50 [1] | IC50 [2] | selective COX-2 inhibitory activity (COX-2 in preference to COX-1) [2]
2-(3-fluorophenyl)-3-(4-aminosulfonylphenyl)imidazo[1,2a][1,2,4]triazine [Product Ihh] | 100 µM |  | 
2-phenyl-3-(4-aminosulfonylphenyl)imidazo[1,2a][1,2,4]triazine [Product Idd] | > 50 µM | 3.8 µM | 
2-phenyl-3-(4-methylsulfonylphenyl)imidazo[1,2a][1,2,4]triazine [Product Iaa] | 76 µM | 3.1 µM | 
CCOc1ccc(-c2nc3ccccn3c2-c2ccc(S(C)(=O)=O)cc2)cc1 [Product Iddd, 2-(4-ethoxyphenyl)-3-(4-methylsulfonylphenyl)imidazo[1,2a]pyridine] | 80 µM | 3.5 µM | 
COc1ccc(-c2nc3ncccn3c2-c2ccc(S(C)(=O)=O)cc2)cc1 [Product If, 2-(4-methoxyphenyl)-3-(4-methylsulfonylphenyl)imidazo[1,2a]pyrimidine] | 25 µM | 1.4 µM | specially selective COX-2 inhibitory activity
COc1ccc(-c2nc3ccccn3c2-c2ccc(S(C)(=O)=O)cc2)cc1C [Product Ifff, 2-(3-methyl-4-methoxyphenyl)-3-(4-methylsulfonylphenyl)imidazo[1,2a]pyridine] | 45 µM | 1 µM | 
CCOc1ccc(-c2nc3ncccn3c2-c2ccc(S(C)(=O)=O)cc2)cc1 [Product Ig, 2-(4-ethoxyphenyl)-3-(4-methylsulfonylphenyl)imidazo[1,2a]pyrimidine] |  | 1 µM | specially selective COX-2 inhibitory activity
COc1ccc(-c2nc3ncccn3c2-c2ccc(S(C)(=O)=O)cc2)cc1C [Product Ii, 2-(3-methyl-4-methoxyphenyl)-3-(4-methylsulfonylphenyl)imidazo[1,2a]pyrimidine] | 30 µM | 2.2 µM | 
Cc1ccc(-c2nc3ncccn3c2-c2ccc(S(N)(=O)=O)cc2)cc1 [Product Io, 2-(4-methylphenyl)-3-(4-aminosulfonylphenyl)imidazo[1,2a]pyrimidine] | > 50 µM | 4.5 µM | 
Cc1cccc(-c2nc3ccccn3c2-c2ccc(S(N)(=O)=O)cc2)c1 [Product Ippp, 2-(3-methylphenyl)-3-(4-aminosulfonylphenyl)imidazo[1,2a]pyridine] |  | 3.1 µM | 
COc1ccc(-c2nc3ccccn3c2-c2ccc(S(N)(=O)=O)cc2)cc1C [Product Iuuu, 2-(3-methyl-4-methoxyphenyl)-3-(4-aminosulfonylphenyl)imidazo[1,2a]pyridine] | 25 µM | 1.7 µM | 

More lines, main results first:

IC50 [1] | IC50 [2] | Molecule | selective COX-2 inhibitory activity (COX-2 in preference to COX-1) [2]
10 µM | 2.8 µM | 2-(3-methylphenyl)-3-(4-aminosulfonylphenyl)imidazo[1,2a][1,2,4]triazine [Product Igg] | 
50 µM | 2.2 µM | 2-(4-fluorophenyl)-3-(4-methylsulfonylphenyl)imidazo[1,2a][1,2,4]triazine [Product Ibb] | 
> 50 µM | 5.5 µM | CS(=O)(=O)c1ccc(-c2c(-c3ccccc3)nc3ncccn23)cc1 [Product Ia, 2-phenyl-3-(4-methylsulfonylphenyl)imidazo [1,2a]pyrimidine] | 
> 50 µM |  | Cc1ccc(-c2nc3ncccn3c2-c2ccc(S(C)(=O)=O)cc2)cc1 [Product Ib, 2-(4-methylphenyl)-3-(4-methylsulfonylphenyl)imidazo[1,2a]pyrimidine] | 
> 50 µM | 2.9 µM | CS(=O)(=O)c1ccc(-c2c(-c3ccc(F)cc3)nc3ncccn23)cc1 [Product Ic, 2-(4-fluorophenyl)-3-(4-methylsulfonylphenyl)imidazo[1,2a]pyrimidine] | specially selective COX-2 inhibitory activity
40 µM | 3.3 µM | COc1ccc(-c2nc3ccccn3c2-c2ccc(S(C)(=O)=O)cc2)cc1 [Product Iccc, 2-(4-methoxyphenyl)-3-(4-methylsulfonylphenyl)imidazo[1,2a]pyridine] | 
> 50 µM | > 10 µM | CS(=O)(=O)c1ccc(-c2c(-c3ccc(Cl)cc3)nc3ncccn23)cc1 [Product Id, 2-(4-chlorophenyl)-3-(4-methylsulfonylphenyl)imidazo[1,2a]pyrimidine] | 
> 50 µM | 2.8 µM | Cc1ccc(-c2nc3ncccn3c2-c2ccc(S(C)(=O)=O)cc2)cc1C [Product Ih, 2-(3,4-dimethylphenyl)-3-(4-methylsulfonylphenyl)imidazo[1,2a]pyrimidine] | 
82 µM | 6.8 µM | COc1ccc(-c2nc3ccccn3c2-c2ccc(S(C)(=O)=O)cc2)cc1Cl [Product Ihhh, 2-(3-chloro-4-methoxyphenyl)-3-(4-methylsulfonylphenyl)imidazo[1,2a]pyridine] | 
61 µM | 3.9 µM | COc1ccc(-c2nc3ncccn3c2-c2ccc(S(C)(=O)=O)cc2)cc1Cl [Product Ik, 2-(3-chloro-4-methoxyphenyl)-3-(4-methylsulfonylphenyl)imidazo[1,2a]pyrimidine] | 
2 µM | 4.2 µM | Cc1ccn2c(-c3ccc(S(C)(=O)=O)cc3)c(-c3ccc(C)c(C)c3)nc2n1 [Product In, 7-methyl-2-(3,4-dimethylphenyl)-3-(4-methylsulfonylphenyl)imidazo[1,2a]pyrimidine] | 
> 100 µM | > 5 µM | Cc1ccccc1-c1nc2ccccn2c1-c1ccc(S(N)(=O)=O)cc1 [Product Innn, 2-(2-methylphenyl)-3-(4-aminosulfonylphenyl)imidazo[1,2a]pyridine] | 
> 100 µM | > 10 µM | NS(=O)(=O)c1ccc(-c2c(-c3cccc(F)c3)nc3ccccn23)cc1 [Product Iqqq, 2-(3-fluorophenyl)-3-(4-aminosulfonylphenyl)imidazo[1,2a]pyridine] | 
